{
  "source": "patent US6962909B2",
  "about": "“Treatment of neovascularization disorders with squalimine” (Genaera Corporation, priority 1995, dated 2005)",
  "key": {"[1]": {"tested_on": "human microvascular cells", "assay": "Endothelial cord formation assay; also: key: + = Inhibition of angiogenesis; − = No inhibition of angiogenesis; T = Toxic; *= cell rounding @ 10 µg/ml", "assay_type": "cell-based", "how_it_was_run": "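Human microvascular endothelial cells plated on collagen matrix with VEGF and basic fibroblast growth factor; compound effect assessed on resulting cord-like tubular structures.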"}, "[2]": {"tested_on": "Human melanoma WM 1167", "assay": "Cytotoxic activity against cancer cells"}, "[3]": {"tested_on": "Stage 59-60 Xenopus tadpoles", "assay": "Xenopus tadpole assay", "assay_type": "in vivo, Xenopus laevis", "settings": "10 μg/ml in water", "how_it_was_run": "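Stage 59-60 Xenopus laevis tadpoles placed in compound dissolved in distilled water at 10 μg/ml, allowing oral uptake and systemic exposure. After 1 hour, capillary blood-flow occlusion in the tail was scored by inverted microscopy (~100×) plus gross observation.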"}, "[4]": {"tested_on": "Lewis lung carcinoma", "assay": "In vitro cell growth inhibition (assay of Baker et al.)", "assay_type": "cell-based", "description": "As set forth in Table 7 below, all malignant tumors evaluated in tissue culture, endothelial cells and vascular smooth muscle cells were sensitive to inhibition. Thus, compound 1436 has application in the control of growth factor dependent proliferation of many types of tissue."}, "[5]": {"tested_on": "vitelline capillaries of 3- to 5-day chick embryo", "assay": "Chick embryo vitelline capillary regression assay", "assay_type": "in vivo", "set-up": "key to Vascular reactivity (capillary regression): + = Vascular reactivity; 0 = No vascular reactivity; +/− = Equivocal reactivity", "how_it_was_run": "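Compounds were applied onto the 3- to 5-day embryo in 0.1 ml 15% Ficol 400 in PBS. Vascular regression was assessed visually after 60 min, scoring capillary constriction and pinching-off into enclosed blood-island-like sacs.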"}},
  "data": [
    {"molecule": "CC(C)CCCC(C)[C@H]1CCC2C3CC[C@H]4C[C@@H](NCCCNCCCCNCCCN)CC[C@]4(C)C3CC[C@@]21C", "note": "(stereo partly drawn) [Compound 353]", "values": [
      {"measurement": "Effect on endothelial cord formation", "setting": "[1]; 0.1 μg/ml", "result": "+"},
      {"measurement": "Effect on endothelial cord formation", "setting": "[1]; 1.0 μg/ml", "result": "+"},
      {"measurement": "Effect on endothelial cord formation", "setting": "[1]; 10.0 μg/ml", "result": "+"},
      {"measurement": "Mechanism of cell death in exposed cells", "setting": "[2]", "result": "apoptotic cell death has been induced"},
      {"measurement": "IC50", "setting": "[2]; Homo sapiens", "result": 3, "unit": "µg/mL"},
      {"measurement": "Pharmacological category in tadpole assay (similarity to a reference steroid)", "setting": "[3]", "result": "effects like those produced by compound 1436"},
      {"measurement": "IC50", "setting": "[4]", "result": 1.9, "unit": "µg/mL"},
      {"measurement": "Vascular reactivity (capillary regression)", "setting": "[5]; 1 μg applied, 60 minutes", "result": "+/−"},
      {"measurement": "Effect on chick embryo capillary bed", "setting": "[5]; in vivo", "result": "no effect on the chick embryo capillary bed"}
    ]}
  ]
}
